From US7666996B2, “Casein derived peptides and uses thereof” (priority 2000, dated 2010)

Key:
[1] = system: Non-Obese Diabetic (NOD) mice; test: Glucosuria in Non-Obese Diabetic (NOD) mice; format: in vivo; conditions: additional series, assayed at week 16; data not shown
Method: Juvenile (Type I, IDDM) diabetes in Non-Obese Diabetic (NOD) mice:
Peptides derived from natural casein: NOD mice are a commonly used model for research of autoimmune disease and human Juvenile Diabetes. Six week old female NOD mice received either one or two injections per week of 100 μg of peptides derived from natural casein, for a total of 5 or 10 treatments. Control mice received no treatment. The severity of disease was determined according to glucosuria, which was measured using Combi test sticks [Gross, D. J. et al (1994), Diabetology, 37:1195]. Results were expressed as the percent of glucosuria-free mice in each sample over a 365-day period.
Synthetic peptides derived from casein: In another experiment, 6 week old female NOD mice received one injection per week of 100 μg of Synthetic peptides derived from casein for a total of 5 treatments. Control mice received no treatment. Results were expressed as the number of healthy mice in the various treated groups.

[2] = system: HIV-1 (CEM lymphocyte cells); test: Inhibition of HIV-1 infection of CEM lymphocytes; format: cell-based; conditions: for Lymphocyte cell numbers: day 7; for HIV-1 infection level, HIV-P24 antigen: control 0.52
Method: Peptides: Peptides [either peptides derived from natural casein or synthetic peptides derived from casein (2-26 amino acids in length, see table 3)] supplied as lyophilized powder were resuspended in RPMI complete medium and added to cell cultures at a final concentrations of 50 to 1000 μg per ml.
Cells: Several types of freshly isolated human cells (primary cells) and cell lines are known to be susceptible to in vitro HIV-1 infection, although essentially any cell displaying even low surface levels of the CD4 molecule can be considered a potential target for HIV-1 infection. Two commonly used human cell lines which are highly sensitive for HIV-1 infection were chosen, CEM and Sup-T1.
CEM is a human T4-lymphoblastoid cell line initially derived by G. E. Foley et al. [(1965), Cancer 18:522] from peripheral blood buffy coat of a person with acute lymphoblastic leukemia. These cells were continuously maintained in suspension in medium, and have been used widely for analysis of infectivity, antiviral agents and neutralizing antibodies.
Virus: The HIV virus strain employed was HIV-1IIIB, originally designated HTLV-IIIB. Concentrated culture fluids of peripheral blood from several patients with AIDS or related diseases were used to establish a permanent productive infection in H-9 cells. This subtype B virus has high capacity to replicate in human T-cell lines. Viral titer was 5.38 ng per ml in stock solution.
HIV-1 P^24 antigen capture assay: An HIV-1 P^24 Antigen capture assay kit employed was designed to quantitate the HIV-1 P^24 core antigen, which is proportionally related to the degree of viral production in cells. This kit was purchased from the AIDS Vaccine program of the SAIC-NCI-Frederick Cancer Research Institute, P.O. Box B, Frederick, Md. 21702, USA and included 96 well plates coated with monoclonal antibody to HIV-1 P^24, primary antibody-rabbit anti-HIV P^24 serum, secondary antibody-Goat anti-rabbit-IgG (H+L) peroxidase conjugated antibody, TMB peroxidase substrate system and lysed HIV-1 P^24 standard. The HIV-1 P^24 antigen capture assay was analyzed by Organon-Technica ELISA reader at 450 nm with a reference at 650 nm.
HIV-1 P^24 antigen capture ELISA: HIV infection was measured with an indirect enzyme immunoassay which detects HIV-1 P^24 core antigens in tissue culture media. Tissue culture supernatant was reacted with primary rabbit anti-HIV-1 P^24 antigen and visualized by peroxidase conjugated goat anti rabbit IgG. The reaction was terminated by adding 4N H2SO4, wherein the intensity of the color developed is proportional to the amount of HIV-1 antigen present in the tissue culture supernatant.
HIV infection of human cultured CD4 cells: For longer incubations, the cells (CEM, Sup-T1) were preincubated with several increasing concentrations of peptides derived from natural casein (50-1000 μg per ml) or synthetic peptides derived from casein (10-500 μg per ml) for 24 (for synthetic and natural peptides) and 48 (only for natural peptides) hours and HIV-1IIIB (45 pg per ml final concentration) was added to each well thereafter. For the shorter incubations (3 hours), HIV-1IIIB was preincubated with the peptides for 3 hours and then added to cells (5000 cells/well) in tissue culture plates. Controls were IF (Infected, cells cultured with HIV-1 and without peptides), UIF (Uninfected, cells cultured without HIV-1 and without peptides) and UIF +Ch (Uninfected+peptides derived from natural casein, cells cultured in the presence of peptides derived from natural casein {50-1000 μg per ml}) to test the effect of peptides derived from natural casein and synthetic peptides derived from casein on cell viability and growth. Cells were counted for viability and proliferation rate on day 7, 10 and day 14 post infection (the day of P^24 antigen culture supernatant harvest). Cells and tissue culture supernatants (media) were harvested and lysed immediately in 1/10 volume of 10% Triton X-100. […]

[3] = system: human Peripheral Blood Stem Cells (K562 target cells); test: Natural Killer (NK) cell activity in cultured human PBSC; format: cell-based
Method: From human Peripheral Blood Stem Cells (PBSC): PBSC of G-CSF treated subjects were separated on a FICOLL gradient, washed twice with RPMI-1640 medium containing 10% FCS and glutamine and seeded into 1.5 ml wells with or without peptides derived from natural casein or synthetic peptides derived from casein, as indicated, (0-500 μg per ml). Following two days incubation the cells were assayed for Natural Killer activity by measuring radioactivity released from ^35S-labeled K562 target cells (NEG-709A, 185.00 MBq, […] EASYTAGth Methionine, L-[^35S] 43.48 TBq per mmol, 1175.0 Ci per mmol, 0.488 ml, Boston USA). Two concentrations of effector cells (2.5×10^5 and 5×10^5 cells per well) were incubated with 5×10^3 target cells per well (effector:target cell ratios of 50:1 and 100:1, respectively) in U-bottomed 96 well tissue culture plates. The cells were incubated for 5 hours at 37° C. in 5% CO2, 95% air and precipitated by 5 minutes centrifugation at 1000 rpm. ^35S release was measured in 50 μl samples of the supernatant liquid.

[4] = system: murine bone marrow progenitor cells; test: CFU-GEMM colonies from murine bone marrow cells, differential counts; format: cell-based; conditions: 53% in controls
Method: Proliferation of megakaryocytes in multipotential colonies (CFU-GEMM) from murine bone marrow cells: Primary bone marrow cells (1×10^5 per ml) from 8-12 week-old C3H/HeJ […], 95% air, at 37° C. The medium, appropriate for the growth of multipotential colonies (CFU-GEMM), contained 1% BSA (Sigma), 10^−4 M thioglycerol (Sigma), 2.8×10^−4 M human transferrin (TF, Biological industries, Israel), 10% WEHI-CM as a source of IL-3 and 2 units per ml erythropoietin (rhEPO, R & D Systems, Minneapolis). […] They were picked with a micropipette, cytocentrifuged and stained with May-Grunwald-Giemsa for differential counts. At least 700 cells were counted for each preparation.
Proliferation of Dendritic cells in CFU-GEMM: Multipotent (CFU-GEMM) colonies grown from primary bone marrow cells as described for the assay of megakaryocyte proliferation above were collected, stained and counted for dendritic cells. At least 700 cells were counted for each preparation.
Proliferation of Plasma cells in CFU-GEMM: Multipotent (CFU-GEMM) colonies grown from primary bone marrow cells as described for the assay of megakaryocyte proliferation above were collected, stained and counted for plasma cells. At least 700 cells were counted for each preparation.
Proliferation of Macrophage Cells in CFU-GEMM: Multipotent (CFU-GEMM) colonies grown from primary bone marrow cells as described for the assay of megakaryocyte proliferation above were collected, stained and counted for macrophage cells. At least 700 cells were counted for each preparation.
Proliferation of Red Blood Cells in CFU-GEMM: Multipotent (CFU-GEMM) colonies grown from primary bone marrow cells as described for the assay of megakaryocyte proliferation above were collected, stained and counted for red blood cells. At least 700 cells were counted for each preparation.
Proliferation of Polymorphonuclear Cells (PMN) in CFU-GEMM: Multipotent (CFU-GEMM) colonies grown from primary bone marrow cells as described for the assay of megakaryocyte proliferation above were collected, stained and counted for polymorphonuclear cells. […]

[5] = system: female C57B⅙j mice fed an atherogenic diet; test: Diet-induced hypercholesterol/hyperlipidemia in mice; format: in vivo; conditions: one week post 1 mg i.p.
Method: The ability of synthetic casein derived peptides to reduce cholesterol levels in 7-week old female C57B⅙j mice was assessed after feeding an atherogenic diet. The mice were divided into groups of 8. One control group was fed a normal diet. A second control group was fed the modified Thomas Hartroft diet containing cholate (#TD 88051: Teklad, Madison, Wis.) [Gerber, D. W. et al., Journal of Lipid Research. 42, 2001]. The remaining experimental groups were all fed the modified Thomas Hartroft diet.
Cholestrol blood levels were determined according to Roche Cholesterol Assay based on Roeschlou & Allin enzymatic method (Roche, Inc., Germany).

[6] = system: irradiated, bone marrow transplanted mice; test: Leukocyte and platelet reconstitution in bone marrow transplant recipient mice; format: in vivo; conditions: 800 cGy; 1.0 mg i.p. daily, days 4-7
Method: Leukocyte and platelet reconstitution in bone marrow transplant recipient Mice: BALB/c mice were sub-lethally irradiated at a source to skin distance of 70 cm, dosage of 50 cGy per minute, for a total of 600 cGy. The irradiated mice were […] casein, synthetic peptides derived from casein (13-26 amino acids, see Table 3 above), or human serum albumin (controls), following a double-blinded protocol. Leukocyte reconstitution was determined according to cell count in peripheral blood collected at indicated intervals from 6 to 12 days post treatment. Platelet reconstitution was determined by cell count in blood collected from the retro orbital plexus, into EDTA-containing vials, at indicated intervals from day 6 to day 15 post treatment. […]
In a third series of experiments, the mice were irradiated (800 cGy), reconstituted and injected intraperitoneally with 1.0 mg synthetic peptides derived from casein (peptides 3a and 4P, representing the first 6 and 12 amino acids of the N terminus of αS1 casein, respectively—see Table 3 above) daily, on days 4, 5, 6 and 7 post-transplantation. Platelet reconstitution was assayed at 10 and 12 days post-transplantation.
In a fourth series of experiments, F1 mice were irradiated (750 cGy), reconstituted with syngeneic bone marrow, and injected intravenously 24 hours later with 1 mg per mouse of synthetic peptides derived from casein representing amino acids 1-22 of the N terminus of αS1 casein. In addition, 2 (two) groups of mice were treated each with a natural fraction of αS1 casein position 1-23, and a fraction of peptides derived from natural κ-casein, representing amino acid coordinates 106-169 of κ-casein (SEQ ID NO: 27). WBC counts were conducted on days 5, 7, 10 and 12 post-transplantation.

[7] = system: murine bone marrow progenitor cells; test: CFU-GM colony formation with IL-3 and G-CSF, murine bone marrow; format: cell-based
Method: Cells were scored in the macroscopic colonies grown from murine bone marrow cells prepared similarly to the CFU-GEMM colonies previously described. Cells were incubated with hematopoietic factors cytokine (IL-3) and colony stimulating factor (G-CSF), and 25 μg or more of synthetic peptides derived from casein (J), representing amino acids 1-22 of α-S1 casein, or 30-4, representing amino acids 1-6 of α-S1 casein, for 14 days, individually or in combination. The stimulation of colony formation (CFU) is expressed as the number of myeloid colonies in 10^5 plated MNCs.
Synthetic peptides derived from αS1-casein stimulate Granulopoietic (GM) cell proliferation in CFU-GM: As mentioned hereinabove, formation and expansion of CFU-GM (Granulocyte and Macrophage) colonies, and CFU-GEMM (Granulocyte, Erythroid, Macrophage and Megakaryocyte) colonies constitute one of the early events in the differentiation of hematopoietic progenitor cells in the bone marrow.

[8] = 25 μg per ml, virus pre-treated 3 hours, infected control 1.06×10^6

RPK [1P, synthetic peptide, N-terminal 3 amino acids of αS1 casein]
prevention of onset of glucosuria (in words) [1]: effectively prevented the onset of glucosuria
Lymphocyte cell numbers ([2]; 100 μg per ml, infected control 1.06×10^6): 1.29×10^6
HIV-1 infection level, HIV-P24 antigen ([2]; 100 μg/ml, 7 days post infection): 0.17 ng P^24 Antigen/ml
Lymphocyte cell numbers ([2]; 500 μg per ml, infected control 1.06×10^6): 2.01×10^6
HIV-1 infection level, HIV-P24 antigen ([2]; 500 μg/ml, 7 days post infection): 0.14 ng P^24 Antigen/ml
target cell lysis relative to untreated controls ([3]; PBS cells from 5 donors with hematopoietic disease, 25-250 μg/ml): from 2- to greater then 8-fold
effect on NK activity in PBSC from healthy human donors ([3]; healthy donors): No significant effect

RPKH [2P, synthetic peptide, N-terminal 4 amino acids of αS1 casein]
prevention of onset of glucosuria (in words) [1]: effectively prevented the onset of glucosuria
red blood cells, % of total cell count [4]: 71%

RPKHP [3P, synthetic peptide, N-terminal 5 amino acids of αS1 casein]
HIV-1 infection level, HIV-P24 antigen ([2]; 10 μg per ml, 7 days post infection): 0.26 ng P^24 Ag per ml
Cell counts ([2]; 10 μg per ml, virus pre-treated 3 hours, infected control 1.06×10^6): 1.17×10^6
HIV-1 infection level, HIV-P24 antigen ([2]; 25 μg per ml, 7 days post infection): 0.18 ng P^24 Ag per ml
Cell counts [2, 8]: 1.26×10^6
HDL ([5]; diet control 54.5): 42.5 mg/dL
LDL ([5]; diet control 326): 247 mg/dL
Total cholesterol (TC) ([5]; diet control 393): 308 mg/dL

RPKHPI [4P, synthetic peptide, N-terminal 6 amino acids of αS1 casein]
increase in platelet counts over control, 12 days post transplantation [6]: 29%
platelet counts, 12 days post transplantation [6]: 872000 mL⁻¹
Cell counts [2, 8]: 1.26×10^6
Cell numbers ([2]; 250 μg per ml, virus pre-treated 3 hours, infected control 1.06×10^6): 1.59×10^6
HIV-P24 antigen, viral particles vs infected control (in words) ([2]; virus preincubated 3 hours, 7 days post infection): dose dependent reduction
myelocyte formation with G-CSF and IL-3 (in words) ([7]; 25 μg or more, 14 days): synergistic increase
increase in proliferation of granulocytes ([7]; in the presence of G-CSF): 18%
